Values quoted from earlier work, collected in paper PMC4469068 (Endocrine-related cancer, 2012).
*1 amine or outer side, *2 acyl side, *3 side chain or, on linkers, in order; H or OH if unused. Where a SMILES comes first, the peptide text is derived from it. Side-chain parts run from the residue outwards. [ ]: non-standard residue; d: D form. The star is where a group is joined. Ethylenediamine = C(CN[*:2])N[*:1]; Hyp = O=C(O)[C@@H]1C[C@@H](O)CN1; Phg = N[C@H](C(=O)O)c1ccccc1; CO = O=C([*:1])[*:2]; Bn = c1ccc(C*)cc1

How the values were obtained:
[1] = system: pancreatic neuroendocrine tumors; details: ref Yao et al. 2011
[2] = system: human corticotroph or somatotroph tumor cell lines; details: in vitro; ref Batista, et al. 2006; Danila, et al. 2001
[3] = system: patients with octreotide-refractory carcinoid syndrome; details: pasireotide 300–1200 mcg bid; ref Kvols et al. 2006
QTc interval = details: 1950 mcg twice daily, healthy adults; ref Novartis, 2012
[4] = system: cell lines derived from small intestine or pancreatic neuroendocrine tumors; details: in vitro; ref Kidd, et al. 2008
patients with acromegaly = details: pasireotide 200–600 mcg BID; ref Petersenn et al. 2010
[5] = system: advanced carcinoid tumors; details: vs. 6 months with placebo; ref Rinke, et al. 2009

In the case of `CO[C@H]1C[C@@H]2CC[C@@H](C)[C@@](O)(O2)C(=O)C(=O)N2CCCC[C@H]2C(=O)O[C@H]([C@H](C)C[C@@H]2CC[C@@H](OCCO)[C@H](OC)C2)CC(=O)[C@H](C)/C=C(\C)[C@@H](O)[C@@H](OC)C(=O)[C@H](C)C[C@H](C)/C=C/C=C/C=C/1C` [everolimus], the “rate of tumor regression” value ([1]; everolimus alone, randomized trial) is listed as 64%, the “hyperglycemia, patients in the everolimus treatment arm” value ([1]; single agent, any grade) is listed as 13% and the “hyperglycemia categorized as grade 3 or 4” value ([1]; single agent) is listed as 5%.

For `NCCCC[C@@H]1NC(=O)[C@@H](Cc2c[nH]c3ccccc23)NC(=O)[C@H](c2ccccc2)NC(=O)[C@@H]2C[C@@H](OC(=O)NCCN)CN2C(=O)[C@H](Cc2ccccc2)NC(=O)[C@H](Cc2ccc(OCc3ccccc3)cc2)NC1=O` [pasireotide] (cyclo([Hyp]([CO-Ethylenediamine])[Phg][dW]KY(Bn)F)), the “effect on cell proliferation” value [2] is given as “suppress cell proliferation”, the binding affinity (sst1; ref Schmid 2008) is given as “high binding affinity” and the “binding affinity compared with octreotide” value (sst1; ref Schmid and Schoeffter 2004) is given as “greater binding affinity”. The “hyperglycemia, patients affected” value [3] was 27%, the binding affinity (sst2; ref Schmid 2008) was “high binding affinity” and the “binding affinity compared with octreotide” value (sst2; ref Schmid and Schoeffter 2004) was “comparable affinity”. The “effect on QTc” value (QTc interval) was “possible QTc prolongation effect”, the “effect on cell proliferation” value [4] was “inhibition of cell proliferation” and the “hyperglycemia, patients affected” value (patients with acromegaly) was 6.7%. For the same compound, the binding affinity (sst3; ref Schmid 2008) was “high binding affinity”, the “binding affinity compared with octreotide” value (sst3; ref Schmid and Schoeffter 2004) was “greater binding affinity” and the binding affinity (sst5; ref Schmid 2008) was “high binding affinity”. For the same compound, the “binding affinity compared with octreotide” value (sst5; ref Schmid and Schoeffter 2004) was “greater binding affinity”.

In the case of octreotide, the “median time to tumor progression” value [5] is listed as 14.3 months.
